Read-outs that look alike come from different tables or passages of the source.
Columns and labels:
Mcl-1 protein = Mcl-1 protein (UniProtKB primary accession number: Q07820) (Homo sapiens, UniProt Q07820); assay: Inhibition of Mcl-1 by fluorescence polarisation, Method 1; assay type: binding; conditions: read-out: IC50 (M) Mcl-1 FP
Method in brief: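 Binding was measured as fluorescence polarisation of a fluorescein-labelled ligand (1 nM) displaced from Mcl-1 (5 nM), both final. Compounds ran as 11-point series with final DMSO at 5%.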

[1] = tested on: H929 multiple myeloma tumour line; assay: In vitro cytotoxicity, Microculture Tetrazolium Assay; assay type: cell-based; conditions: Homo sapiens, NCI-H929, 48 h, H929 cells, 48 hours exposure, MTT; read-out: IC50 (μM) MTT H929
Experimental: The cytotoxicity studies were carried out on the H929 multiple myeloma tumour line.
The cells are distributed onto microplates and exposed to the test compounds for 48 hours.

[2] = fluorescence polarisation test, Method 2 values are underlined in the patent (underlining not visible here)
[3] = fluorescence polarisation, Method 1, or Method 2

Chain of Mcl-1 protein (Q07820 whole entry): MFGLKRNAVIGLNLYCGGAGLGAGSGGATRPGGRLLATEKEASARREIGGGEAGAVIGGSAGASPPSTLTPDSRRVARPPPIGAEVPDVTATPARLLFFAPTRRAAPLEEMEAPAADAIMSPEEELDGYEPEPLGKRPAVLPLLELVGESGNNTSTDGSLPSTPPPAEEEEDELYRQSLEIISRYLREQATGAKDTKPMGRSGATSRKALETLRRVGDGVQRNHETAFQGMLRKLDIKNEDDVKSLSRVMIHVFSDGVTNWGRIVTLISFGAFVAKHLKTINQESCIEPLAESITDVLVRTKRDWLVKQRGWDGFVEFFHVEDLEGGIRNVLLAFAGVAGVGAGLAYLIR

Row | Structure (SMILES) | IC50 (Mcl-1 protein; [2]) | IC50 [1] | IC50 (Mcl-1 protein; [3])
1 | Cc1c(-c2c(-c3ccc(F)cc3)sc3ncnc(OC(Cc4ccccc4OCc4ccnc(OCc5ccncc5)n4)C(=O)O)c23)ccc(OCCN2CCN(C)CC2)c1Cl [Example 59, (2R)-2-{[(5Sa)-5-{3-chloro-2-methyl-4-[2-(4-methylpiperazin-1-yl)ethoxy]phenyl}-6-(4-fluorophenyl)thieno[2,3-d]pyrimidin-4-yl]oxy}-3-(2-{[2-(pyridin-4-ylmethoxy)pyrimidin-4-yl]methoxy}phenyl)propanoic acid] | 4e-09 M | 0.021 µM | 
2 | CC#Cc1sc2ncnc(OC(Cc3ccccc3OC)C(=O)O)c2c1-c1ccc(OCCN(C)C)c(Cl)c1C [Example 467, (2R)-2-{[(5Sa)-5-{3-chloro-4-[2-(dimethylamino)ethoxy]-2-methylphenyl}-6-(prop-1-yn-1-yl)thieno[2,3-d]pyrimidin-4-yl]oxy}-3-(2-methoxyphenyl)propanoic acid] |  | 0.502 µM | 1.1e-08 M
3 | COCCN1CCC(COc2ccc(-c3c(-c4ccco4)sc4ncnc(OC(Cc5ccccc5OC)C(=O)O)c34)c(C)c2Cl)C1 [Example 312, (2R)-2-{[(5Sa)-5-(3-chloro-4-{[1-(2-methoxyethyl)pyrrolidin-3-yl]methoxy}-2-methylphenyl)-6-(furan-2-yl)thieno[2,3-d]pyrimidin-4-yl]oxy}-3-(2-methoxyphenyl)propanoic acid] | 8.9e-09 M | 1 µM | 
4 | Cc1c(-c2c(-c3ccc(F)cc3)sc3ncnc(OC(Cc4ccccc4OCc4ccnn4-c4ccccc4)C(=O)O)c23)ccc(OCCN2CCN(C)CC2)c1Cl [Example 74, (2R)-2-{[(5Sa)-5-{3-chloro-2-methyl-4-[2-(4-methylpiperazin-1-yl)ethoxy]phenyl}-6-(4-fluorophenyl)thieno[2,3-d]pyrimidin-4-yl]oxy}-3-{2-[(1-phenyl-1H-pyrazol-5-yl)methoxy]phenyl}propanoic acid] | 1.6e-08 M | 0.365 µM | 
5 | COc1ccccc1CC(Oc1ncnc2sc(-c3ccco3)c(-c3ccc(OCC4CN(C)CCN4C)c(Cl)c3C)c12)C(=O)O [Example 313, (2R)-2-{[(5Sa)-5-{3-chloro-4-[(1,4-dimethylpiperazin-2-yl)methoxy]-2-methylphenyl}-6-(furan-2-yl)thieno[2,3-d]pyrimidin-4-yl]oxy}-3-(2-methoxyphenyl)propanoic acid] | 1e-08 M | 0.886 µM | 
6 | COc1ccc(C)cc1CC(Oc1ncnc2sc(-c3ccco3)c(-c3ccc(OCCN4CCN(C)CC4)c(Cl)c3C)c12)C(=O)O [Example 344, (2R)-2-{[(5Sa)-5-{3-chloro-2-methyl-4-[2-(4-methylpiperazin-1-yl)ethoxy]phenyl}-6-(furan-2-yl)thieno[2,3-d]pyrimidin-4-yl]oxy}-3-(2-methoxy-5-methylphenyl)propanoic acid] | 1.6e-08 M | 0.22 µM | 
7 | CCn1nccc1COc1ccccc1CC(Oc1ncnc2sc(-c3ccc(Cl)o3)c(-c3ccc(OCCN4CCN(C)CC4)c(Cl)c3C)c12)C(=O)O [Example 372, (2R)-2-{[6-(5-chlorofuran-2-yl)-(5Sa)-5-{3-chloro-2-methyl-4-[2-(4-methylpiperazin-1-yl)ethoxy]phenyl}thieno[2,3-d]pyrimidin-4-yl]oxy}-3-{2-[(1-ethyl-1H-pyrazol-5-yl)methoxy]phenyl}propanoic acid] | 9.7e-09 M | 0.018 µM | 
8 | CC#Cc1sc2ncnc(OC(Cc3cccc4occc34)C(=O)O)c2c1-c1ccc(OCCN2CCN(C)CC2)c(Cl)c1C [Example 492, (2R)-3-(1-benzofuran-4-yl)-2-{[(5Sa)-5-{3-chloro-2-methyl-4-[2-(4-methylpiperazin-1-yl)ethoxy]phenyl}-6-(prop-1-yn-1-yl)thieno[2,3-d]pyrimidin-4-yl]oxy}propanoic acid] |  | 2.19 µM | 9e-08 M
9 | Cc1c(-c2c(-c3ccc(F)cc3)sc3ncnc(OC(Cc4ccccc4OCc4ccnc(-c5ccccc5)n4)C(=O)O)c23)ccc(OCCN2CCN(C)CC2)c1Cl [Example 29, (2R)-2-{[(5Sa)-5-{3-chloro-2-methyl-4-[2-(4-methylpiperazin-1-yl)ethoxy]phenyl}-6-(4-fluorophenyl)thieno[2,3-d]pyrimidin-4-yl]oxy}-3-{2-[(2-phenylpyrimidin-4-yl)methoxy]phenyl}propanoic acid] | 3.3e-09 M | 0.007 µM | 
10 | COc1ccccc1CC(Oc1ncnc2sc(-c3ccco3)c(-c3ccc(OCCC4CCN(C)CC4)c(Cl)c3C)c12)C(=O)O [Example 317, (2R)-2-{[(5Sa)-5-{3-chloro-2-methyl-4-[2-(1-methylpiperidin-4-yl)ethoxy]phenyl}-6-(furan-2-yl)thieno[2,3-d]pyrimidin-4-yl]oxy}-3-(2-methoxyphenyl)propanoic acid] | 1.8e-08 M | 0.852 µM | 
11 | COCC#Cc1sc2ncnc(OC(Cc3ccccc3OCc3ccnc(-c4ccccc4OC)n3)C(=O)O)c2c1-c1ccc(OCCN2CCN(C)CC2)c(Cl)c1C [Example 784, (2R)-2-{[(5Sa)-5-{3-chloro-2-methyl-4-[2-(4-methylpiperazin-1-yl)ethoxy]phenyl}-6-(3-methoxyprop-1-yn-1-yl)thieno[2,3-d]pyrimidin-4-yl]oxy}-3-(2-{[2-(2-methoxyphenyl)pyrimidin-4-yl]methoxy}phenyl)propanoic acid] |  | 0.023 µM | 9.48e-10 M
12 | COc1nccc(COc2ccccc2CC(Oc2ncnc3sc(-c4ccco4)c(-c4ccc(OCCN5CCN(C)CC5)c(Cl)c4C)c23)C(=O)O)n1 [Example 255, (2R)-2-{[(5Sa)-5-{3-chloro-2-methyl-4-[2-(4-methylpiperazin-1-yl)ethoxy]phenyl}-6-(furan-2-yl)thieno[2,3-d]pyrimidin-4-yl]oxy}-3-{2-[(2-methoxypyrimidin-4-yl)methoxy]phenyl}propanoic acid] | 7.5e-09 M | 0.018 µM | 
13 | Cc1ccc(-c2nccc(COc3ccccc3CC(Oc3ncnc4sc(-c5ccc(F)cc5)c(-c5ccc(OCCN6CCN(C)CC6)c(Cl)c5C)c34)C(=O)O)n2)cn1 [Example 108, (2R)-2-{[(5Sa)-5-{3-chloro-2-methyl-4-[2-(4-methylpiperazin-1-yl)ethoxy]phenyl}-6-(4-fluorophenyl)thieno[2,3-d]pyrimidin-4-yl]oxy}-3-(2-{[2-(6-methylpyridin-3-yl)pyrimidin-4-yl]methoxy}phenyl)propanoic acid] | 3.5e-09 M | 0.007 µM | 
14 | CCCCn1nccc1COc1ccccc1CC(Oc1ncnc2sc(-c3ccc(OCCN4CCOCC4)cc3)c(-c3ccc(OCCN4CCN(C)CC4)c(Cl)c3C)c12)C(=O)O [Example 616, (2R)-3-{2-[(1-butyl-1H-pyrazol-5-yl)methoxy]phenyl}-2-[((5Sa)-5-{3-chloro-2-methyl-4-[2-(4-methylpiperazin-1-yl)ethoxy]phenyl}-6-{4-[2-(morpholin-4-yl)ethoxy]phenyl}thieno[2,3-d]pyrimidin-4-yl)oxy]propanoic acid] |  | 0.07 µM | 4e-09 M
15 | Cc1c(-c2c(-c3ccc(F)cc3)sc3ncnc(OC(Cc4ccccc4OCc4ccnc(CCN(C)C)n4)C(=O)O)c23)ccc(OCCN2CCN(C)CC2)c1Cl [Example 43, (2R)-2-{[(5Sa)-5-{3-chloro-2-methyl-4-[2-(4-methylpiperazin-1-yl)ethoxy]phenyl}-6-(4-fluorophenyl)thieno[2,3-d]pyrimidin-4-yl]oxy}-3-[2-({2-[2-(dimethylamino)ethyl]pyrimidin-4-yl}methoxy)phenyl]propanoic acid] | 9.8e-09 M | 0.465 µM | 
16 | CCc1ccc(-c2sc3ncnc(OC(Cc4ccccc4OC)C(=O)O)c3c2-c2ccc(OCCN3CCN(C)CC3)c(Cl)c2C)o1 [Example 543, (2R)-2-{[(5Sa)-5-{3-chloro-2-methyl-4-[2-(4-methylpiperazin-1-yl)ethoxy]phenyl}-6-(5-ethylfuran-2-yl)thieno[2,3-d]pyrimidin-4-yl]oxy}-3-(2-methoxyphenyl)propanoic acid] |  | 0.766 µM | 4.2e-08 M
17 | Cc1c(-c2c(-c3ccc(F)o3)sc3ncnc(OC(Cc4ccccc4OCC(=O)NCc4ccccc4)C(=O)O)c23)ccc(OCCN2CCN(C)CC2)c1Cl [Example 153, (2R)-3-{2-[2-(benzylamino)-2-oxoethoxy]phenyl}-2-{[(5Sa)-5-{3-chloro-2-methyl-4-[2-(4-methylpiperazin-1-yl)ethoxy]phenyl}-6-(5-fluorofuran-2-yl)thieno[2,3-d]pyrimidin-4-yl]oxy}propanoic acid] | 5e-09 M | 0.146 µM | 
18 | COc1ccccc1CC(Oc1ncnc2sc(-c3cccc(OC)c3F)c(-c3ccc(OCCN4CCN(C)CC4)c(Cl)c3C)c12)C(=O)O [Example 561, (2R)-2-{[(5Sa)-5-{3-chloro-2-methyl-4-[2-(4-methylpiperazin-1-yl)ethoxy]phenyl}-6-(2-fluoro-3-methoxyphenyl)thieno[2,3-d]pyrimidin-4-yl]oxy}-3-(2-methoxyphenyl)propanoic acid] |  | 0.61 µM | 2.7e-08 M
19 | COc1ccccc1CC(Oc1ncnc2sc(-c3ccc(C)o3)c(-c3ccc(OCCN4CCN(C)CC4)c(Cl)c3C)c12)C(=O)O [Example 541, (2R)-2-{[(5Sa)-5-{3-chloro-2-methyl-4-[2-(4-methylpiperazin-1-yl)ethoxy]phenyl}-6-(5-methylfuran-2-yl)thieno[2,3-d]pyrimidin-4-yl]oxy}-3-(2-methoxyphenyl)propanoic acid] |  | 0.329 µM | 2.9e-08 M
20 | COCCOc1ccccc1CC(Oc1ncnc2sc(-c3ccc(F)o3)c(-c3ccc(OCCN4CCN(C)CC4)c(Cl)c3C)c12)C(=O)O [Example 194, (2R)-2-{[(5Sa)-5-{3-chloro-2-methyl-4-[2-(4-methylpiperazin-1-yl)ethoxy]phenyl}-6-(5-fluorofuran-2-yl)thieno[2,3-d]pyrimidin-4-yl]oxy}-3-[2-(2-methoxyethoxy)phenyl]propanoic acid] | 8e-09 M | 0.058 µM | 

From patent publication US9670227B2, “Thienopyrimidine derivatives, a process for their preparation and pharmaceutical compositions containing them” (LES LABORATOIRES SERVIER, priority 2013, dated 2017)
